One block for each molecule: values may come before it.
Columns and labels:
[1] = Pharmacokinetic interaction in vivo in rats; conditions: rat; for AUC(0-inf) / C0 / clearance / half-life: Wistar, plasma, iv; for AUC(0-inf) / C0 / clearance / half-life / Cumulative urinary excretion over 8 h, compared with alone group: 45 mg/kg; for AUC(0-inf): AUC0→∞; for clearance: CLP; for half-life: T1/2β; for Cumulative urinary excretion over 8 h, compared with alone group: with probenecid 100 mg/kg
rat kidney slices = assay: In vitro uptake in rat kidney slices; format: in vitro ADME; conditions: for Uptake in rat kidney slices at 37 °C compared with 4 °C: 100 µM; for Effect on the uptake of cilastatin in rat kidney slices / Effect on the uptake of imipenem in rat kidney slices: inhibitor 200 µM; for Effect on the uptake of cilastatin in rat kidney slices: cilastatin 100 µM; for Effect on the uptake of imipenem in rat kidney slices: imipenem 100 µM
human OAT3 (hOAT3) = molecular target: T1, human OAT3 (hOAT3) (Homo sapiens, UniProt Q8TCC7); assay: In vitro transporter uptake assay in hOAT3-HEK293 cells; format: in vitro ADME; conditions: for Uptake in hOAT3-HEK293 cells compared with mock cells: 100 µM
T1 sequence (Q8TCC7 1-542): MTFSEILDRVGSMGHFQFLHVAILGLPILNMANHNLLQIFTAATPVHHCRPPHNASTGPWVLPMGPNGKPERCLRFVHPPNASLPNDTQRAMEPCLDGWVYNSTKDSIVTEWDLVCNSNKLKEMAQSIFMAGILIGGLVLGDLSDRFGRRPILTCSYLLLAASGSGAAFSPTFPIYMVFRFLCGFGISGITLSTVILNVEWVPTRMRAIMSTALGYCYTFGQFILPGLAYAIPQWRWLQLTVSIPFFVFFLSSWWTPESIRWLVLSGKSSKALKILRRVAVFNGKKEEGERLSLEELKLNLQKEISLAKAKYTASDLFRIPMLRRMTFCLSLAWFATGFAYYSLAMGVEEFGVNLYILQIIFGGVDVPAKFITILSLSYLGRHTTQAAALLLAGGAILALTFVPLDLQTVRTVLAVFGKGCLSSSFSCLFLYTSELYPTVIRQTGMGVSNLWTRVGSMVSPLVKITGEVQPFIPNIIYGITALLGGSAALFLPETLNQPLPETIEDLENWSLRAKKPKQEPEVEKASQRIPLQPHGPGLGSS

OAT1 = molecular target: T2, OAT1 (Homo sapiens, UniProt Q4U2R8); assay: In vitro transporter uptake assay in hOAT1-HEK293 cells; conditions: human, pH 7.4
T2 sequence (Q4U2R8 1-563): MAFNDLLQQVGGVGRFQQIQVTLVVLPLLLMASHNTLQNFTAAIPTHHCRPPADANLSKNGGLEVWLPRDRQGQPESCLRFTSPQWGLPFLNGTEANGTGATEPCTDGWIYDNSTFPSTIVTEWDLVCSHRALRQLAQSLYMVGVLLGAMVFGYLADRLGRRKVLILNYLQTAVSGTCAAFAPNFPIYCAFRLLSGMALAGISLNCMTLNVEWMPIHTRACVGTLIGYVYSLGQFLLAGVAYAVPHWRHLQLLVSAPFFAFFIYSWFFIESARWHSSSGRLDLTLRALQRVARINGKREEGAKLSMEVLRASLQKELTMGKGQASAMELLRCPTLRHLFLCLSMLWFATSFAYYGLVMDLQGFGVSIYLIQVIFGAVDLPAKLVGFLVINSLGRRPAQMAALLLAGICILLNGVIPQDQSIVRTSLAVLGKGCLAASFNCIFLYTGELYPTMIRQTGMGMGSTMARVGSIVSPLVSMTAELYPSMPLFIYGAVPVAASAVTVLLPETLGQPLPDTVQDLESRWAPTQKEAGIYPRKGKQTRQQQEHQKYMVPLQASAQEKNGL

human OAT1 (hOAT1) = molecular target: T3, human OAT1 (hOAT1) (Homo sapiens, UniProt Q4U2R8); assay: as above
T3 sequence (Q4U2R8 1-563): T2 sequence (Q4U2R8 1-563)

OAT3 = molecular target: T4, OAT3 (Homo sapiens, UniProt Q8TCC7); assay: In vitro transporter uptake assay in hOAT3-HEK293 cells; format: in vitro ADME; conditions: human, HEK293 cells transfected with human OAT3 (hOAT3-HEK293), pH 7.4
T4 sequence (Q8TCC7 1-542): T1 sequence (Q8TCC7 1-542)

[2] = substrate: CC1(C)C[C@@H]1C(=O)N/C(=C\CCCCSC[C@H](N)C(=O)O)C(=O)O; assay: cells, lysate or membranes named; conditions: other: hOAT3-HEK293 cells, alone, 1 min uptake, 0–2000 µM; pH 7.4; 37.0 °C
[3] = of cilastatin, i.v., cilastatin + imipenem, 45 mg/kg for both
[4] = C0, rat, single administration (alone)
[5] = imipenem 100 µM, cilastatin 0–2000 µM, Eadie–Hofstee plot
[6] = of imipenem, i.v., imipenem + cilastatin, 45 mg/kg for both

AUC(0-inf) [1, 3]: 84700 ng·h/mL | AUC(0-inf) ([1]; single administration (alone)): 56500 ng·h/mL | C0 ([1]; C0, of cilastatin, i.v., cilastatin + imipenem, 45 mg/kg for both): 175 ± 11.1 µg/mL | C0 [1, 4]: 156 ± 3.6 µg/mL | clearance [1, 3]: 8.9 ± 0.3 mL/min/kg | clearance ([1]; single administration (alone)): 13.3 ± 0.1 mL/min/kg | half-life [1, 3]: 28.6 ± 4 min | half-life ([1]; single administration (alone)): 19.7 ± 0.8 min | Cumulative urinary excretion over 8 h, compared with alone group ([1]; i.v.): significantly decreased | Cumulative urinary excretion of cilastatin, compared with cilastatin alone group ([1]; i.v., co-administered with imipenem, 45 mg/kg for both): decreased significantly | Uptake in rat kidney slices at 37 °C compared with 4 °C (rat kidney slices): significantly higher | Uptake in hOAT3-HEK293 cells compared with mock cells (human OAT3 (hOAT3)): significantly higher
Molecule: CC1(C)C[C@@H]1C(=O)N/C(=C\CCCCSC[C@H](N)C(=O)O)C(=O)O [Cilastatin]

Km at 1 min (OAT1): 631 ± 30 µM | Uptake in hOAT1-HEK293 cells compared with mock cells (human OAT1 (hOAT1); 100 µM): significantly higher | Vmax (human OAT1 (hOAT1); hOAT1, alone): 0.223 ± 0.011 nmol/mg protein/min | Vmax (human OAT1 (hOAT1); hOAT1-HEK293 cells, alone, 1 min uptake, 0–2000 µM): 0.223 ± 0.011 nmol/mg protein/1 min | Inhibitory type on the uptake of cilastatin in hOAT1-HEK293 cells (human OAT1 (hOAT1); [5]): competitive | AUC(0-inf) [1, 6]: 92400 ng·h/mL | AUC(0-inf) ([1]; single administration (alone)): 34800 ng·h/mL | C0 ([1]; C0, of imipenem, i.v., imipenem + cilastatin, 45 mg/kg for both): 187 ± 13.5 µg/mL | C0 [1, 4]: 129 ± 2.6 µg/mL | clearance [1, 6]: 8.1 ± 0.4 mL/min/kg | clearance ([1]; single administration (alone)): 21.6 ± 0.4 mL/min/kg | half-life [1, 6]: 62 ± 1.4 min | half-life ([1]; single administration (alone)): 18.5 ± 2.8 min | Cumulative urinary excretion over 8 h, compared with alone group ([1]; i.v.): significantly decreased | Uptake in rat kidney slices at 37 °C compared with 4 °C (rat kidney slices): significantly higher | Km at 1 min (OAT3): 759 ± 62 µM | Uptake in hOAT3-HEK293 cells compared with mock cells (human OAT3 (hOAT3)): significantly higher | Vmax (human OAT3 (hOAT3); hOAT3, alone): 0.329 ± 0.036 nmol/mg protein/min | Vmax (human OAT3 (hOAT3); hOAT3-HEK293 cells, alone, 1 min uptake, 0–2000 µM): 0.329 ± 0.036 nmol/mg protein/1 min | Inhibitory type on the uptake of cilastatin in hOAT3-HEK293 cells (human OAT3 (hOAT3); [5]): competitive
Molecule: C[C@@H](O)[C@H]1C(=O)N2C(C(=O)O)=C(SCCN=CN)C[C@H]12 [Imipenem]

Molecule: Nc1ccc(C(=O)NCC(=O)O)cc1 [PAH, p-aminohippurate]
Effect on the uptake of cilastatin in rat kidney slices (rat kidney slices): inhibited | Effect on the uptake of imipenem in rat kidney slices (rat kidney slices): inhibited

Effect on uptake of imipenem and cilastatin in hOAT3-HEK293 cells (human OAT3 (hOAT3); PCG 200 µM, imipenem 100 µM, cilastatin 100 µM): significantly inhibited
Molecule: CC1(C)S[C@@H]2[C@H](NC(=O)Cc3ccccc3)C(=O)N2[C@H]1C(=O)O [PCG, benzylpenicillin]
Effect on the uptake of cilastatin in rat kidney slices (rat kidney slices): inhibited | Effect on the uptake of imipenem in rat kidney slices (rat kidney slices): inhibited

Molecule: CC[N+](CC)(CC)CC [TEA, tetraethyl ammonium]
Effect on the uptake of cilastatin in rat kidney slices (rat kidney slices): not TEA inhibited | Effect on the uptake of imipenem in rat kidney slices (rat kidney slices): not TEA inhibited

Molecule: CCCN(CCC)S(=O)(=O)c1ccc(C(=O)O)cc1 [probenecid, Probenecid]
Effect on the uptake of cilastatin in rat kidney slices (rat kidney slices): inhibited | Effect on the uptake of imipenem in rat kidney slices (rat kidney slices): inhibited

B1: human OAT3 (hOAT3) (Homo sapiens) (protein)
chain: T1 sequence (Q8TCC7 1-542)
Km [2]: 238 ± 2 µM | Vmax [2]: 0.000751 µmol/min/mg
